Laboratory results published in patent US8580776B2, “Compositions and methods for treating neurodegenerating diseases” (The Board of Trustees of the University of Illinois, priority 2007, dated 2013).

Columns and labels:
microglial marker Mac1 = assay: Glial activation: Mac1 staining of brain sections; assay type: in vivo, mice
Experimental: (§1) The effects of DSP4 treatment on glial activation were assessed in hippocampus and frontal cortex by staining for microglial marker Mac1 and astrocyte marker GFAP (FIG. 3). Sections from vehicle and DSP4 treated H6 mice brains were stained with antibodies directed against Mac1 to assess microglial activation (FIG. 3A-C); and GFAP to assess astrocyte activation (FIG. 3D-F). […] FIGS. 3G-3I show quantitative analysis of Mac1 (FIG. 3G-3H) and GFAP staining (FIG. 31).
(§2) Hemibrains were fixed overnight in 4% paraformaldehyde in 0.1M phosphate buffer, then overnight in 10% sucrose in 0.1M phosphate buffer, and then frozen in isopentane at −30° C. Serial sections (35 um thick) were prepared on a cryostat, and stored in cryoprotective solution (0.1M phosphate buffer: ethyleneglycol:glycerol 30:40:30) at −20° C. […] Staining was quantified using software provided by the manufacturer (Zeiss AxioVision). GFAP and Mac1 staining was quantified in 3 different areas on each of 4 serial sections for each animal (n=3 or 4 for Mac1; n=7 or 9 for GFAP staining) The data was average area stained per section (as % total area) from DSP4-treated (n=3 for Mac1; n=7 for GFAP) and vehicle-treated (n=4 for Mac1; n=9 for GFAP) mice. […]

astrocyte marker GFAP = assay: Glial activation: GFAP staining of brain sections; assay type: in vivo, mice
Experimental: as §1, §2

[1] = tested on: insulin degrading enzyme (IDE); assay: QPCR of insulin degrading enzyme mRNA in brain samples; assay type: in vivo, mice; settings: cortical samples, versus vehicle
Experimental: Total cytoplasmic RNA from tissues was isolated using TRIZOL reagent, (Invitrogen/GIBCO); aliquots were converted to cDNA using random hexamer primers, and mRNA levels were estimated by quantitative touchdown PCR (QPCR). PCR conditions were 35 cycles of denaturation at 94° C. for 10 s; annealing at 58-64° C. for 15 s; and extension at 72° C. for 20 s on a Corbett Rotorgene Real-Time PCR unit (Corbett, Australia). PCR was done using Taq DNA Polymerase (Invitrogen), and contained SYBR Green (SybrGreen1 10,000× concentrate, diluted 1:10,000; Molecular Probes, Eugene, Oreg.). Relative mRNA concentrations were calculated from the takeoff point of reactions using manufacturer's software, and were normalized to α-tubulin, β-actin, and glyceraldehyde-3-phosphate dehydrogenase (GDH). Melting curve analysis and agarose gel electrophoresis ensured production of single and corrected size products. The primers used were: […]
Comparative real time RT-PCR (or quantitative PCR, QPCR) was used to measure mRNA levels of the Aβ degrading enzymes neprilysin (Nep) and insulin degrading enzyme (IDE) in brain samples from vehicle and DSP4 treated mice (FIG. 4A). […] To assess the effects of dose, mouse neuronal N2A cells were incubated with increasing does of NA for 24 hr after which NEP activity was measured (FIG. 4D, data is mean±sd and is from n=3 samples). […]

IκBα = assay: QPCR of IκBα mRNA in frontal cortex of DSP4-treated rats; assay type: in vivo, rat
Experimental: In this experiment, the effects of DSP4 on tyrosine hydroxylase (TH) and IkBα expression were analyzed. Adult rat Sprague Dawley rats were treated with the selective neurotoxin DSP4 to lesion locus ceruleus (LC) noradrenergic neurons and deplete cortical NA levels as described in Example 1.
RNA samples from control or DSP4-treated rats (n=4 each) were converted to cDNA and analyzed by QPCR for relative levels of tyrosine hydroxylase (TH) (FIG. 6A) in the locus ceruleus (LC).
Total cytoplasmic RNA from tissues was prepared from cells using TRIZOL reagent according to manufacturer procedures (Invitrogen/GIBCO); aliquots were converted to cDNA using random hexamer primers, and mRNA levels were estimated by quantitative touchdown PCR (QPCR). Conditions were 35 cycles of denaturation at 94° C. for 10 s; annealing at 58-64° C. for 15 s; and extension at 72° C. for 20 s on a Corbett Rotorgene Real-Time PCR unit (Corbett, Australia). The PCR mastermix contained SYBR Green (1 μl diluted 1:10,000 SybrGreen I 10,000× concentrate, Molecular Probes, Eugene, Oreg.). Relative mRNA concentrations were calculated from the takeoff point of reactions using manufacturer's software. Melting curve analysis and agarose gel electrophoresis were performed to ensure production of single and corrected size products. […]

EAE mice = assay: NA depletion with DSP4 in EAE (MOG35-55 immunized mice); assay type: in vivo; settings: DSP4 50 mg/kg i.p. twice one week apart, MOG immunization 2 weeks later; versus vehicle

CCN(CCCl)Cc1ccccc1Br [DSP4, N-(2-chloroethyl)-N-ethyl-2-bromobenzylamine]
Mac1 staining, hippocampus and frontal cortex (microglial marker Mac1; hippocampus effect not statistically significant): increased Mac1 staining in both regions | increase in Mac1 staining, frontal cortex (microglial marker Mac1; versus vehicle, statistically significant): approximately 40% | GFAP staining, frontal cortex (astrocyte marker GFAP; low levels of staining, not shown): little effect | increase in GFAP staining, hippocampus (astrocyte marker GFAP; versus vehicle, significant): approximately 68% | levels of insulin degrading enzyme (IDE) mRNA [1]: small, non-significant reductions | cortical IκBα mRNA levels (IκBα; P<0.01): 45 % versus control values | reduction of cortical IκBα mRNA levels (IκBα; versus control values, n=4, P<0.01): 55% | clinical signs of EAE (EAE mice): appeared sooner and were more severe
